The values below come from patent US20250382344A1, “Soluble GLP1/GIP/NPY2 Receptor Triple Agonists” (Boehringer Ingelheim International GmH, priority 2024, published 2025).

One series deals with T1, hGLP1R (Homo sapiens, UniProt P43220).
T1 construct: expressed in transfected cells; host or cells: HEK-293 CRE-luciferase reporter cells
Put plainly: hGLP1R CreLuc assay in 0.5% and 100% plasma (HEK-293 CRE-luciferase reporter cells). Format: cell-based. The note with it: HEK-293 reporter cells. Background: A reporter such as luciferase makes a cellular process visible.

Another series concerns the target T2, hGIPR (Homo sapiens, UniProt P48546).
T2 construct: expressed in transfected cells; host or cells: CHO CRE-luciferase reporter cells
T2 sequence (P48546 22-466): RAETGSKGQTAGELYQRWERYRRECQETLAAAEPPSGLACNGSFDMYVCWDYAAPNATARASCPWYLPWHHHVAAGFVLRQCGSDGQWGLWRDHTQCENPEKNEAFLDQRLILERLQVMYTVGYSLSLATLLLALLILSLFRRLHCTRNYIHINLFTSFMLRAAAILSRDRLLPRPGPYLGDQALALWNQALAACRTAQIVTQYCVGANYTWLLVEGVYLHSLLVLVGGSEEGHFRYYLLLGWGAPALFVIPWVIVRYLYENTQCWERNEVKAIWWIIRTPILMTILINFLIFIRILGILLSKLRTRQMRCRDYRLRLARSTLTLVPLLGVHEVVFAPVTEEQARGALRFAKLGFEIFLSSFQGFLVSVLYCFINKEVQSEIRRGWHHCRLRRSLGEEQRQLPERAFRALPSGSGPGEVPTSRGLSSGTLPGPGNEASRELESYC
Briefly: hGIPR CreLuc assay in 0.5% and 100% plasma (CHO CRE-luciferase reporter cells). Type of series: cell-based.

A short description of series [1]: Solubility in 0.1 M phosphate buffer at pH 7. The note with it: 0.1 M phosphate buffer at pH 7, 10 mg/mL final peptide concentration, shaking 2 hours at room temperature, peptides as TFA-salts, measured sample pH 6.5-7.0. Format: physicochemical.
Setting [2] is: 0.5% human plasma, read-out: hGLP1R 0.5% hP.
Where [3] appears, read: 0.5% human plasma, read-out: hGIPR 0.5% hP.
[4] abbreviates: 100% human plasma, read-out: hGLP1R 100% hP.
The mark [5] stands for this setting: 100% human plasma, read-out: hGIPR 100% hP.

Read-outs that look alike come from different tables or passages of the source. *1 amine or outer side, *2 acyl side, *3 side chain or, on linkers, in order; H or OH if unused. Where a SMILES comes first, the peptide text is derived from it. Side-chain parts run from the residue outwards. [ ]: non-standard residue; d: D form. The star is where a group is joined. C18 diacid = O=C(O)CCCCCCCCCCCCCCCCC(=O)*; γGlu = O=C(O)[C@H](CCC(=O)[*:2])N[*:1]; εLys = N[C@@H](CCCCN[*:1])C(=O)[*:2]; Aib = CC(C)(N)C(=O)O

T1 sequence (P43220 24-463): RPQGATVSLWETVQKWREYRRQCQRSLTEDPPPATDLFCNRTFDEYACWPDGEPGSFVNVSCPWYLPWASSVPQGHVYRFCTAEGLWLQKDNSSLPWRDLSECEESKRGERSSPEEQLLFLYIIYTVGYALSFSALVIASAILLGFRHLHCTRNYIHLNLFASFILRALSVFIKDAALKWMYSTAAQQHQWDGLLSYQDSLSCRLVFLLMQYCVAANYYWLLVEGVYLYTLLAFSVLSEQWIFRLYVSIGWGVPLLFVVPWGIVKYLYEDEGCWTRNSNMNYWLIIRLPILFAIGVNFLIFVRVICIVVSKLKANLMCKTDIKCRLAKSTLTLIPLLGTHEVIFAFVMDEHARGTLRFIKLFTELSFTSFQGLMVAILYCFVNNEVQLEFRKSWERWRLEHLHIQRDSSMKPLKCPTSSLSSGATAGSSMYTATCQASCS

As a reminder, the solubility is the dissolved amount per volume that the medium holds. As for `CC[C@H](C)[C@H](NC(=O)[C@H](CC(C)C)NC(=O)[C@H](Cc1c[nH]cn1)NC(=O)[C@H](CCCNC(=N)N)NC(=O)[C@@H](NC(=O)[C@H](Cc1ccccc1)NC(=O)[C@H](C)NC(=O)C(C)(C)NC(=O)[C@H](CCC(N)=O)NC(=O)[C@H](C)NC(=O)[C@H](CCC(N)=O)NC(=O)[C@H](CCCCN)NC(=O)[C@H](CCC(=O)O)NC(=O)[C@H](CC(C)C)NC(=O)[C@](C)(CC(C)C)NC(=O)[C@@H](NC(=O)[C@H](CO)NC(=O)[C@H](Cc1ccc(O)cc1)NC(=O)[C@H](CC(=O)O)NC(=O)[C@H](CO)NC(=O)[C@@H](NC(=O)[C@H](Cc1ccccc1)NC(=O)[C@@H](NC(=O)CNC(=O)[C@H](CCC(=O)O)NC(=O)C(C)(C)NC(=O)[C@@H](N)Cc1ccc(O)cc1)[C@@H](C)O)[C@@H](C)O)[C@@H](C)CC)C(C)C)C(=O)N[C@@H](CC(N)=O)C(=O)N[C@@H](CCCCNC(=O)CC[C@H](NC(=O)CC[C@H](NC(=O)CC[C@H](NC(=O)CC[C@H](NC(=O)CC[C@H](NC(=O)CC[C@H](NC(=O)CCCCCCCCCCCCCCCCCCC(=O)O)C(=O)O)C(=O)O)C(=O)O)C(=O)O)C(=O)O)C(=O)O)C(=O)NC(C)(C)C(=O)N[C@H](C(=O)N[C@@H](CCCNC(=N)N)C(=O)N[C@@H](CCC(N)=O)C(=O)N[C@@H](CCCNC(=N)N)C(=O)N[C@@H](Cc1ccc(O)cc1)C(N)=O)[C@@H](C)O` [Compound 49, Y-Aib-E-G-T-F-T-S-D-Y-S-I-aMeL-L-E-K-Q-A-Q-Aib-A-F-V-R-H-L-I-N-K(1,3)-Aib-T-R-Q-R-Y-NH2.C20DA-gGlu-gGlu-gGlu-gGlu-gGlu-gGlu(1,2)], the EC50 at hGLP1R (setting [2]) worked out at 0.3 nM; at hGIPR (setting [3]), 0.1 nM. The solubility at 2 h in series [1] was 10000 µg/mL.
Take `CC[C@H](C)[C@H](NC(=O)[C@H](CC(C)C)NC(=O)[C@H](Cc1c[nH]cn1)NC(=O)[C@H](CCCNC(=N)N)NC(=O)[C@@H](NC(=O)[C@H](Cc1ccccc1)NC(=O)[C@H](C)NC(=O)C(C)(C)NC(=O)[C@H](CCC(N)=O)NC(=O)[C@H](C)NC(=O)[C@H](CCC(N)=O)NC(=O)[C@H](C)NC(=O)[C@H](CC(=O)O)NC(=O)[C@H](CC(C)C)NC(=O)C(C)(C)NC(=O)[C@@H](NC(=O)[C@H](CO)NC(=O)[C@H](Cc1ccc(O)cc1)NC(=O)[C@H](CC(=O)O)NC(=O)[C@H](CO)NC(=O)[C@@H](NC(=O)[C@H](Cc1ccccc1)NC(=O)[C@@H](NC(=O)CNC(=O)[C@H](CCC(=O)O)NC(=O)C(C)(C)NC(=O)[C@@H](N)Cc1ccc(O)cc1)[C@@H](C)O)[C@@H](C)O)[C@@H](C)CC)C(C)C)C(=O)N[C@@H](CC(N)=O)C(=O)N[C@@H](CCCCNC(=O)[C@@H](N)CCCCNC(=O)CC[C@H](NC(=O)CC[C@H](NC(=O)CC[C@H](NC(=O)CC[C@H](NC(=O)CC[C@H](NC(=O)CC[C@H](NC(=O)CCCCCCCCCCCCCCCCC(=O)O)C(=O)O)C(=O)O)C(=O)O)C(=O)O)C(=O)O)C(=O)O)C(=O)NC(C)(C)C(=O)N[C@H](C(=O)N[C@@H](CCCNC(=N)N)C(=O)N[C@@H](CCC(N)=O)C(=O)N[C@@H](CCCNC(=N)N)C(=O)N[C@@H](Cc1ccc(O)cc1)C(N)=O)[C@@H](C)O` [Compound 55, Y-Aib-E-G-T-F-T-S-D-Y-S-I-Aib-L-D-A-Q-A-Q-Aib-A-F-V-R-H-L-I-N-K(1,3)-Aib-T-R-Q-R-Y-NH2.C18DA-gGlu-gGlu-gGlu-gGlu-gGlu-gGlu-eLys(1,2)]: the EC50 on hGLP1R (setting [2]) and on hGIPR (setting [3]) was 0.4 nM each time. Besides, the solubility at 2 h in series [1] stood at 8800 µg/mL.
For `CC[C@H](C)[C@H](NC(=O)[C@H](CC(C)C)NC(=O)[C@H](Cc1c[nH]cn1)NC(=O)[C@H](CCCNC(=N)N)NC(=O)[C@@H](NC(=O)[C@H](Cc1ccccc1)NC(=O)[C@H](CCC(=O)O)NC(=O)C(C)(C)NC(=O)[C@H](CCC(N)=O)NC(=O)[C@H](C)NC(=O)[C@H](CCC(N)=O)NC(=O)[C@H](CCCCN)NC(=O)[C@H](CCC(=O)O)NC(=O)[C@H](CC(C)C)NC(=O)C(C)(C)NC(=O)[C@@H](NC(=O)[C@H](CO)NC(=O)[C@H](Cc1ccc(O)cc1)NC(=O)[C@H](CC(=O)O)NC(=O)[C@H](CO)NC(=O)[C@@H](NC(=O)[C@H](Cc1ccccc1)NC(=O)[C@@H](NC(=O)CNC(=O)[C@H](CCC(=O)O)NC(=O)C(C)(C)NC(=O)[C@@H](N)Cc1ccc(O)cc1)[C@@H](C)O)[C@@H](C)O)[C@@H](C)CC)C(C)C)C(=O)N[C@@H](CC(N)=O)C(=O)N[C@@H](CCCCNC(=O)CC[C@H](NC(=O)CC[C@H](NC(=O)CC[C@H](NC(=O)CC[C@H](NC(=O)CC[C@H](NC(=O)CC[C@H](NC(=O)CCCCCCCCCCCCCCCCC(=O)O)C(=O)O)C(=O)O)C(=O)O)C(=O)O)C(=O)O)C(=O)O)C(=O)NC(C)(C)C(=O)N[C@H](C(=O)N[C@@H](CCCNC(=N)N)C(=O)N[C@@H](CCC(N)=O)C(=O)N[C@@H](CCCNC(=N)N)C(=O)N[C@@H](Cc1ccc(O)cc1)C(N)=O)[C@@H](C)O` [Compound 56, Y-Aib-E-G-T-F-T-S-D-Y-S-I-Aib-L-E-K-Q-A-Q-Aib-E-F-V-R-H-L-I-N-K(1,3)-Aib-T-R-Q-R-Y-NH2.C18DA-gGlu-gGlu-gGlu-gGlu-gGlu-gGlu(1,2)], the EC50 is 0.7 nM on hGLP1R (setting [2]), 7.1 nM on hGLP1R (setting [4]), 0.4 nM at hGIPR (setting [3]) and 19.3 nM on hGIPR (setting [5]). In addition, the solubility in series [1] (read-out: Solubility) is 4400 µg/mL.
Regarding `CC[C@H](C)[C@H](NC(=O)[C@H](CC(C)C)NC(=O)[C@H](Cc1c[nH]cn1)NC(=O)[C@H](CCCNC(=N)N)NC(=O)[C@@H](NC(=O)[C@H](Cc1ccccc1)NC(=O)[C@H](C)NC(=O)C(C)(C)NC(=O)[C@H](CCC(N)=O)NC(=O)[C@H](C)NC(=O)[C@H](CCC(N)=O)NC(=O)[C@H](CCCCN)NC(=O)[C@H](CC(=O)O)NC(=O)[C@H](CC(C)C)NC(=O)[C@](C)(CC(C)C)NC(=O)[C@@H](NC(=O)[C@H](CO)NC(=O)[C@H](Cc1ccc(O)cc1)NC(=O)[C@H](CC(=O)O)NC(=O)[C@H](CO)NC(=O)[C@@H](NC(=O)[C@H](Cc1ccccc1)NC(=O)[C@@H](NC(=O)CNC(=O)[C@H](CCC(=O)O)NC(=O)C(C)(C)NC(=O)[C@@H](N)Cc1ccc(O)cc1)[C@@H](C)O)[C@@H](C)O)[C@@H](C)CC)C(C)C)C(=O)N[C@@H](CC(N)=O)C(=O)N[C@@H](CCCCNC(=O)[C@@H](N)CCCCNC(=O)CC[C@H](NC(=O)CC[C@H](NC(=O)CC[C@H](NC(=O)CC[C@H](NC(=O)CC[C@H](NC(=O)CC[C@H](NC(=O)CCCCCCCCCCCCCCCCC(=O)O)C(=O)O)C(=O)O)C(=O)O)C(=O)O)C(=O)O)C(=O)O)C(=O)NC(C)(C)C(=O)N[C@H](C(=O)N[C@@H](CCCNC(=N)N)C(=O)N[C@@H](CCC(N)=O)C(=O)N[C@@H](CCCNC(=N)N)C(=O)N[C@@H](Cc1ccc(O)cc1)C(N)=O)[C@@H](C)O` [Compound 67, Y-Aib-E-G-T-F-T-S-D-Y-S-I-aMeL-L-D-K-Q-A-Q-Aib-A-F-V-R-H-L-I-N-K(1,3)-Aib-T-R-Q-R-Y-NH2.C18DA-gGlu-gGlu-gGlu-gGlu-gGlu-gGlu-eLys(1,2)], the EC50 at hGLP1R (setting [2]) was 0.1 nM; at hGLP1R (setting [4]) it was 0.6 nM; at hGIPR (setting [3]), 0.1 nM; at hGIPR (setting [5]), 1.7 nM. Moreover, in series [1], the solubility at 2 h was 8800 µg/mL.
`CC[C@H](C)[C@H](NC(=O)[C@H](CC(C)C)NC(=O)[C@H](Cc1c[nH]cn1)NC(=O)[C@H](CCCNC(=N)N)NC(=O)[C@@H](NC(=O)[C@H](Cc1ccccc1)NC(=O)[C@H](C)NC(=O)C(C)(C)NC(=O)[C@H](CCC(N)=O)NC(=O)[C@H](C)NC(=O)[C@H](CCC(N)=O)NC(=O)[C@H](CCCCN)NC(=O)[C@H](CCC(=O)O)NC(=O)[C@H](CC(C)C)NC(=O)C(C)(C)NC(=O)[C@@H](NC(=O)[C@H](CO)NC(=O)[C@H](Cc1ccc(O)cc1)NC(=O)[C@H](CC(=O)O)NC(=O)[C@H](CO)NC(=O)[C@@H](NC(=O)[C@H](Cc1ccccc1)NC(=O)[C@@H](NC(=O)CNC(=O)[C@H](CCC(=O)O)NC(=O)C(C)(C)NC(=O)[C@@H](N)Cc1ccc(O)cc1)[C@@H](C)O)[C@@H](C)O)[C@@H](C)CC)C(C)C)C(=O)N[C@@H](C)C(=O)N[C@@H](CCCCNC(=O)[C@@H](N)CCCCNC(=O)CC[C@H](NC(=O)CC[C@H](NC(=O)CC[C@H](NC(=O)CC[C@H](NC(=O)CC[C@H](NC(=O)CC[C@H](NC(=O)CCCCCCCCCCCCCCCCC(=O)O)C(=O)O)C(=O)O)C(=O)O)C(=O)O)C(=O)O)C(=O)O)C(=O)NC(C)(C)C(=O)N[C@H](C(=O)N[C@@H](CCCNC(=N)N)C(=O)N[C@@H](CCC(N)=O)C(=O)N[C@@H](CCCNC(=N)N)C(=O)N[C@@H](Cc1ccc(O)cc1)C(N)=O)[C@@H](C)O` [Compound 68, Y-Aib-E-G-T-F-T-S-D-Y-S-I-Aib-L-E-K-Q-A-Q-Aib-A-F-V-R-H-L-I-A-K(1,3)-Aib-T-R-Q-R-Y-NH2.C18DA-gGlu-gGlu-gGlu-gGlu-gGlu-gGlu-eLys(1,2)] (H-Y[Aib]EGTFTSDYSI[Aib]LEKQAQ[Aib]AFVRHLIAK([εLys-γGlu-γGlu-γGlu-γGlu-γGlu-γGlu-C18 diacid])[Aib]TRQRY-NH2; N-terminus assumed): the EC50 at hGLP1R (setting [2]) was found to be 0.6 nM; on hGIPR (setting [3]), 0.2 nM. In series [1], the solubility at 2 h stood at 4800 µg/mL.
